From patent US10772893B2, “2-(morpholin-4-yl)-1,7-naphthyridines” (BAYER PHARMA AKTIENGESELLSCHAFT, priority 2014, dated 2020) come the findings set out here.

In the assay the test system is HeLa cells. In words: Proliferation assay, crystal violet staining. Particulars: Homo sapiens, 96 h, read-out: Inhibition of HeLa cell proliferation, HeLa cells, 4 days incubation.
Experimental: After 24 hours, the cells of one plate (zero plate) were dyed with crystal violet (see below), whereas the medium of the other plates was replaced with fresh culture medium (200 μl) to which the test substances were added in various concentrations (0 μM, and also in the range of 0.001-10 μM; the final concentration of the solvent dimethyl sulphoxide was 0.1 or 0.5%). The cells were incubated for 4 days in the presence of the test substances. […] After washing the fixed cells three times with water, the plates were dried at room temperature. The cells were stained by adding 100 μl/measurement point of a 0.1% strength crystal violet solution (pH adjusted to pH 3 by adding acetic acid). After washing the cells three times with water, the plates were dried at room temperature. The dye was dissolved by adding 100 μl/measurement point of a 10% strength acetic acid solution. […] The percentage change in cell growth was calculated by normalizing the measured values to the absorbance values of the zero plate (=0%) and the absorbance of the untreated (0 W) cells (=100%). The IC50 values were determined by means of a four parameter fit.
With `C[C@@H]1COCCN1c1cc(-c2cnn(C)c2)c2ccnc(-c3ccn[nH]3)c2n1` [Example 248, 2-[(3R)-3-methylmorpholin-4-yl]-4-(1-methyl-1H-pyrazol-4-yl)-8-(1H-pyrazol-5-yl)-1,7-naphthyridine], the IC50 was 451 nM. For the molecule `Cc1nn(C)cc1-c1cc(N2CCOC[C@H]2C)nc2c(-c3ccn[nH]3)nccc12` [Example 249, 4-(1,3-dimethyl-1H-pyrazol-4-yl)-2-[(3R)-3-methylmorpholin-4-yl]-8-(1H-pyrazol-5-yl)-1,7-naphthyridine], the IC50 stood at 409 nM. As for `Cc1c(-c2cc(N3CCOC[C@H]3C)nc3c(-c4ccn[nH]4)nccc23)cnn1C` [Example 250, 4-(1,5-dimethyl-1H-pyrazol-4-yl)-2-[(3R)-3-methylmorpholin-4-yl]-8-(1H-pyrazol-5-yl)-1,7-naphthyridine], the IC50 is 116 nM. For `C[C@@H]1COCCN1c1cc(C2CCNCC2)c2ccnc(-c3ccn[nH]3)c2n1` [Example 251, 2-[(3R)-3-methylmorpholin-4-yl]-4-(piperidin-4-yl)-8-(1H-pyrazol-5-yl)-1,7-naphthyridine], the IC50 came to 800 nM. With `C[C@@H]1COCCN1c1cc(-c2c[nH]nc2C(F)(F)F)c2ccnc(-c3ccn[nH]3)c2n1` [Example 252, 2-[(3R)-3-methylmorpholin-4-yl]-8-(1H-pyrazol-5-yl)-4-[3-(trifluoromethyl)-1H-pyrazol-4-yl]-1,7-naphthyridine] the figure was 222 nM; with `C[C@@H]1COCCN1c1cc(-c2cnn(C3CCC3)c2)c2ccnc(-c3ccn[nH]3)c2n1` [Example 253, 4-(1-cyclobutyl-1H-pyrazol-4-yl)-2-[(3R)-3-methylmorpholin-4-yl]-8-(1H-pyrazol-5-yl)-1,7-naphthyridine], 558 nM.

Consider `C[C@@H]1COCCN1c1cc(-c2cnn(C3CC3)c2)c2ccnc(-c3ccn[nH]3)c2n1` [Example 254, 4-(1-cyclopropyl-1H-pyrazol-4-yl)-2-[(3R)-3-methylmorpholin-4-yl]-8-(1H-pyrazol-5-yl)-1,7-naphthyridine], for which the IC50 was 312 nM.

Regarding `CC(C)n1cc(-c2cc(N3CCOC[C@H]3C)nc3c(-c4ccn[nH]4)nccc23)cn1` [Example 255, 2-[(3R)-3-methylmorpholin-4-yl]-4-[1-(propan-2-yl)-1H-pyrazol-4-yl]-8-(1H-pyrazol-5-yl)-1,7-naphthyridine], the IC50 turned out to be 458 nM. Consider `Cc1nn(C)c(C)c1-c1cc(N2CCOC[C@H]2C)nc2c(-c3ccn[nH]3)nccc12` [Example 258, 2-[(3R)-3-methylmorpholin-4-yl]-8-(1H-pyrazol-5-yl)-4-(1,3,5-trimethyl-1H-pyrazol-4-yl)-1,7-naphthyridine], for which the IC50 was found to be 263 nM. `C[C@@H]1COCCN1c1cc(-c2cn(C)nc2C(F)(F)F)c2ccnc(-c3ccn[nH]3)c2n1` [Example 259, 2-[(3R)-3-methylmorpholin-4-yl]-4-[1-methyl-3-(trifluoromethyl)-1H-pyrazol-4-yl]-8-(1H-pyrazol-5-yl)-1,7-naphthyridine]: the IC50 is 497 nM. Regarding `C[C@@H]1COCCN1c1cc(-c2cnn(CCO)c2)c2ccnc(-c3ccn[nH]3)c2n1` [Example 260], the IC50 is 485 nM.

In the case of `CCn1cc(-c2cc(N3CCOC[C@H]3C)nc3c(-c4ccn[nH]4)nccc23)cn1` [Example 261, 4-(1-ethyl-1H-pyrazol-4-yl)-2-[(3R)-3-methylmorpholin-4-yl]-8-(1H-pyrazol-5-yl)-1,7-naphthyridine], the IC50 was found to be 420 nM.

As for `C[C@@H]1COCCN1c1cc(-c2ccn(C)c2)c2ccnc(-c3ccn[nH]3)c2n1` [Example 262, 2-[(3R)-3-methylmorpholin-4-yl]-4-(1-methyl-1H-pyrrol-3-yl)-8-(1H-pyrazol-5-yl)-1,7-naphthyridine], the IC50 was 471 nM.

In the case of `CC(C)n1ccc(-c2cc(N3CCOC[C@H]3C)nc3c(-c4ccn[nH]4)nccc23)n1` [Example 263, 2-[(3R)-3-methylmorpholin-4-yl]-4-[1-(propan-2-yl)-1H-pyrazol-3-yl]-8-(1H-pyrazol-5-yl)-1,7-naphthyridine], the IC50 came out at 332 nM.

As for `Cc1cc(-c2cc(N3CCOC[C@H]3C)nc3c(-c4ccn[nH]4)nccc23)c(C)n1C` [Example 264, 2-[(3R)-3-methylmorpholin-4-yl]-8-(1H-pyrazol-5-yl)-4-(1,2,5-trimethyl-1H-pyrrol-3-yl)-1,7-naphthyridine], the IC50 amounted to 198 nM. Under `Cc1n[nH]cc1-c1cc(N2CCOC[C@H]2C)nc2c(-c3ccn[nH]3)nccc12` [Example 266, 2-[(3R)-3-methylmorpholin-4-yl]-4-(3-methyl-1H-pyrazol-4-yl)-8-(1H-pyrazol-5-yl)-1,7-naphthyridine] stands 154 nM; under `C[C@@H]1COCCN1c1cc(N)c2ccnc(-c3ccn[nH]3)c2n1` [Example 267, 2-[(3R)-3-methylmorpholin-4-yl]-8-(1H-pyrazol-5-yl)-1,7-naphthyridin-4-amine], 2970 nM. Regarding `CC(C)Cn1cc(-c2cc(N3CCOC[C@H]3C)nc3c(-c4ccn[nH]4)nccc23)cn1` [Example 268, 2-[(3R)-3-methylmorpholin-4-yl]-4-[1-(2-methylpropyl)-1H-pyrazol-4-yl]-8-(1H-pyrazol-5-yl)-1,7-naphthyridine], the IC50 came out at 415 nM. Take `C[C@@H]1COCCN1c1cc(-c2cn[nH]c2)c2ccnc(-c3ccn[nH]3)c2n1` [Example 269, 2-[(3R)-3-methylmorpholin-4-yl]-4-(1H-pyrazol-4-yl)-8-(1H-pyrazol-5-yl)-1,7-naphthyridine]: the IC50 turned out to be 405 nM. `C[C@@H]1COCCN1c1cc(-c2ncco2)c2ccnc(-c3ccn[nH]3)c2n1` [Example 270, 2-[(3R)-3-methylmorpholin-4-yl]-4-(1,3-oxazol-2-yl)-8-(1H-pyrazol-5-yl)-1,7-naphthyridine]: the IC50 turned out to be 565 nM.

Regarding `Cc1nn(C)cc1-c1cc(N2CCOCC2)nc2c(-c3ccn[nH]3)nccc12` [Example 271, 4-(1,3-dimethyl-1H-pyrazol-4-yl)-2-(morpholin-4-yl)-8-(1H-pyrazol-5-yl)-1,7-naphthyridine], the IC50 was 1330 nM. Consider `Cc1c(-c2cc(N3CCOCC3)nc3c(-c4ccn[nH]4)nccc23)cnn1C` [Example 272, 4-(1,5-dimethyl-1H-pyrazol-4-yl)-2-(morpholin-4-yl)-8-(1H-pyrazol-5-yl)-1,7-naphthyridine], for which the IC50 was determined as 648 nM. Under `Cc1nn(C)c(C)c1-c1cc(N2CCOCC2)nc2c(-c3ccn[nH]3)nccc12` [Example 273, 2-(morpholin-4-yl)-8-(1H-pyrazol-5-yl)-4-(1,3,5-trimethyl-1H-pyrazol-4-yl)-1,7-naphthyridine] stands 999 nM; under `COCCS(C)(=O)=Nc1cc(N2CCOC[C@H]2C)nc2c(-c3ccn[nH]3)nccc12` (stereo partly drawn) [Example 274, 4-{[(2-methoxyethyl)(methyl)oxido-λ^6-sulfanylidene]amino}-2-[(3R)-3-methylmorpholin-4-yl]-8-(1H-pyrazol-5-yl)-1,7-naphthyridine], 610 nM. With `C[C@@H]1COCCN1c1cc(N=S(C)(=O)c2ccc(Br)cc2)c2ccnc(-c3ccn[nH]3)c2n1` (stereo partly drawn) [Example 277, 4-{[(4-bromophenyl)(methyl)oxido-λ^6-sulfanylidene]amino}-2-[(3R)-3-methylmorpholin-4-yl]-8-(1H-pyrazol-5-yl)-1,7-naphthyridine], the IC50 turned out to be 401 nM. As for `C[C@@H]1COCCN1c1cc(N=S(C)(=O)C(C)(C)C)c2ccnc(-c3ccn[nH]3)c2n1` (stereo partly drawn) [Example 278, 4-{[tert-butyl(methyl)oxido-λ^6-sulfanylidene]amino}-2-[(3R)-3-methylmorpholin-4-yl]-8-(1H-pyrazol-5-yl]-1,7-naphthyridine], the IC50 is 168 nM. As to `O=S1(=Nc2cc(N3CCOCC3)nc3c(-c4ccn[nH]4)nccc23)CCCCC1` [Example 280, N-[2-(morpholin-4-yl)-8-(1H-pyrazol-5-yl)-1,7-naphthyridin-4-yl]hexahydro-1λ^4-thiopyran-1-imine 1-oxide], the IC50 was determined as 417 nM. As for `CC(C)C(C)(O)c1cc(N2CCOC[C@H]2C)nc2c(-c3ccn[nH]3)nccc12` (stereo partly drawn) [Example 281, 3-methyl-2-{2-[(3R)-3-methylmorpholin-4-yl]-8-(1H-pyrazol-5-yl)-1,7-naphthyridin-4-yl}butan-2-ol], the IC50 came to 259 nM.

Regarding `C[C@@H]1COCCN1c1cc(C(C)(O)C2CCOCC2)c2ccnc(-c3ccn[nH]3)c2n1` (stereo partly drawn) [Example 282, 1-{2-[(3R)-3-methylmorpholin-4-yl]-8-(1H-pyrazol-5-yl)-1,7-naphthyridin-4-yl}-1-(tetrahydro-2H-pyran-4-yl)ethanol], the IC50 came to 1180 nM. For the molecule `C[C@@H]1COCCN1c1cc(C(C)(O)C(C)(C)C)c2ccnc(-c3ccn[nH]3)c2n1` (stereo partly drawn) [Example 283, 3,3-dimethyl-2-{2-[(3R)-3-methylmorpholin-4-yl]-8-(1H-pyrazol-5-yl)-1,7-naphthyridin-4-yl}butan-2-ol], the IC50 was 146 nM. Under `CCCCC(C)(O)c1cc(N2CCOC[C@H]2C)nc2c(-c3ccn[nH]3)nccc12` (stereo partly drawn) [Example 284, 2-{2-[(3R)-3-methylmorpholin-4-yl]-8-(1H-pyrazol-5-yl)-1,7-naphthyridin-4-yl}hexan-2-ol] stands 852 nM.

Consider `O=C(NC1CC1)c1ccc(-c2cc(N3CCOCC3)nc3c(-c4ccn[nH]4)nccc23)cc1` [Example 291, N-cyclopropyl-4-[2-(morpholin-4-yl)-8-(1H-pyrazol-5-yl)-1,7-naphthyridin-4-yl]benzamide], for which the IC50 is 1520 nM. In the case of `Cc1ccncc1-c1cc(N2CCOCC2)nc2c(-c3ccn[nH]3)nccc12` [Example 292, 4-(4-methylpyridin-3-yl)-2-(morpholin-4-yl)-8-(1H-pyrazol-5-yl)-1,7-naphthyridine], the IC50 was 2640 nM. In the case of `c1cc(-c2cc(N3CCOCC3)nc3c(-c4ccn[nH]4)nccc23)c2cc[nH]c2c1` [Example 294, 4-(1H-indol-4-yl)-2-(morpholin-4-yl)-8-(1H-pyrazol-5-yl)-1,7-naphthyridine], the IC50 amounted to 2450 nM. In the case of `NC(=O)c1ccc(-c2cc(N3CCOCC3)nc3c(-c4ccn[nH]4)nccc23)cc1` [Example 296, 4-[2-(morpholin-4-yl)-8-(1H-pyrazol-5-yl)-1,7-naphthyridin-4-yl]benzamide], the IC50 was determined as 2740 nM.
